According to EP4732839A1, “USE OF COMPOUND IN TREATMENT OF LIVER DISEASES” (priority 2023, dated 2025):

Assays:
[1] = Liver tissue distribution after single intragastric administration; conditions: for Mean drug concentration (liver) / Mean drug concentration (plasma) / AUC(0-t) at 24 h: 10 mg/kg single intragastric, ICR mice; for AUC(0-t) at 24 h: in vivo, area under curve at 24 h post-dose
Description: The specific regimen was as follows: Before administration, the state of the formulation for administration was inspected, and the homogeneity of the formulation was ensured by vortexing, stirring, or shaking. The theoretical dose for each mouse was calculated according to the following formula. The actual dose for each ICR mouse and the collection time for plasma and tissue samples were required to be recorded in detail in corresponding tables. Theoretical administration volume (mL) = ((Dose(mg⋅kg^−1))/(Concentration of test solution (mg⋅((mL))^−1))) × Animal body weight (kg) [formula]
Plasma sample collection: At each designated time point, about 100 µL of blood was collected from the orbit, and the collected whole blood was placed in an EDTA-K2 anticoagulation tube, inverted several times to mix thoroughly, stored on wet ice, and centrifuged (at 1500 g to 1600 g) for 10 min within 30 min to separate the plasma. The resulting plasma sample was stored at -40 °C to -20 °C for biological sample analysis.
The specific procedures for liver tissue collection were as follows: Liver tissues were collected immediately after whole blood collection. The liver tissues were collected, washed with ice-cold normal saline, dehydrated, weighed, and homogenized in 20% methanol-water at a ratio of 1:5 (w/v). The collection time of tissues and the weight of homogenized tissues were required to be recorded in detail in corresponding tables.
The plasma and various tissue homogenates were stored in a refrigerator at -40 °C to -20 °C for sample analysis. After the experiment was completed, the mice were euthanized by carbon dioxide asphyxiation or cervical dislocation. After the analysis was completed, the samples were returned to the biological sample room, and transferred to an environment at -40 °C to -20 °C for storage according to SOP-SM-001.
The corresponding pharmacokinetic parameters of plasma and liver tissues were calculated using a non-compartmental model in Phoenix WinNonlin 8.0 or later versions, and the area under curve AUC0-t (AUC0-t, the area under the concentration-time curve at 24 h post-dose) was calculated. The liver/plasma drug distribution ratio (RL/P) was then calculated.

[2] = test system: IFN-α, IP-10, IL-6, and TNF-α; test: Liver safety: cytokine ELISA in liver tissue; format: in vivo, C57BL/6J wild-type female mice; conditions: 1 h, 2 h, 4 h
Description: (§1) C57BL/6J wild-type female mice (6 weeks old) were randomly grouped. After administration at different doses, whole blood and liver tissues of the mice were separately collected at 1 h, 2 h, and 4 h for detection of a plurality of parameters to evaluate the effect of the drugs on the liver.
(§2) Liver tissues and blood were collected at 1 h, 2 h, and 4 h after single dosing.
(§3) The supernatant was collected and stored (-20 °C); • (3) IFN-α, IP-10, IL-6, and TNF-α were detected using an ELISA kit. • (C) Remaining liver tissue-HE staining and pathological evaluation. • (D) 1/2 blood (whole blood)-liver function parameter detection: AST (aspartate aminotransferase), ALT (alanine aminotransferase/glutamate pyruvate transaminase), ALP (alkaline phosphatase), ALB (albumin), and GGT (γ-glutamyl transferase). • (E) 1/2 blood-serum preparation-reserve for ELISA.

[3] = test system: ISG15, ISG56, Mx1, and Oaslb; test: Liver safety: qPCR of interferon-related genes in liver tissue; format: in vivo, C57BL/6J wild-type female mice; conditions: dose of 3 mpk (pharmacodynamic dose)
Description: as §1, §2, §3

[4] = format: in vivo, C57BL/6J wild-type female mice
Description: as §1, §2, §3

Hep3B-luc = Hep3B-luc liver orthotopic xenograft mouse model; conditions: Hep3B-luc liver orthotopic tumor model, 3 mg/kg
hERG potassium channel = hERG potassium channel (Homo sapiens, UniProt Q12809); test: hERG whole-cell patch-clamp; format: cell-based
hERG potassium channel, sequence (Q12809 whole entry): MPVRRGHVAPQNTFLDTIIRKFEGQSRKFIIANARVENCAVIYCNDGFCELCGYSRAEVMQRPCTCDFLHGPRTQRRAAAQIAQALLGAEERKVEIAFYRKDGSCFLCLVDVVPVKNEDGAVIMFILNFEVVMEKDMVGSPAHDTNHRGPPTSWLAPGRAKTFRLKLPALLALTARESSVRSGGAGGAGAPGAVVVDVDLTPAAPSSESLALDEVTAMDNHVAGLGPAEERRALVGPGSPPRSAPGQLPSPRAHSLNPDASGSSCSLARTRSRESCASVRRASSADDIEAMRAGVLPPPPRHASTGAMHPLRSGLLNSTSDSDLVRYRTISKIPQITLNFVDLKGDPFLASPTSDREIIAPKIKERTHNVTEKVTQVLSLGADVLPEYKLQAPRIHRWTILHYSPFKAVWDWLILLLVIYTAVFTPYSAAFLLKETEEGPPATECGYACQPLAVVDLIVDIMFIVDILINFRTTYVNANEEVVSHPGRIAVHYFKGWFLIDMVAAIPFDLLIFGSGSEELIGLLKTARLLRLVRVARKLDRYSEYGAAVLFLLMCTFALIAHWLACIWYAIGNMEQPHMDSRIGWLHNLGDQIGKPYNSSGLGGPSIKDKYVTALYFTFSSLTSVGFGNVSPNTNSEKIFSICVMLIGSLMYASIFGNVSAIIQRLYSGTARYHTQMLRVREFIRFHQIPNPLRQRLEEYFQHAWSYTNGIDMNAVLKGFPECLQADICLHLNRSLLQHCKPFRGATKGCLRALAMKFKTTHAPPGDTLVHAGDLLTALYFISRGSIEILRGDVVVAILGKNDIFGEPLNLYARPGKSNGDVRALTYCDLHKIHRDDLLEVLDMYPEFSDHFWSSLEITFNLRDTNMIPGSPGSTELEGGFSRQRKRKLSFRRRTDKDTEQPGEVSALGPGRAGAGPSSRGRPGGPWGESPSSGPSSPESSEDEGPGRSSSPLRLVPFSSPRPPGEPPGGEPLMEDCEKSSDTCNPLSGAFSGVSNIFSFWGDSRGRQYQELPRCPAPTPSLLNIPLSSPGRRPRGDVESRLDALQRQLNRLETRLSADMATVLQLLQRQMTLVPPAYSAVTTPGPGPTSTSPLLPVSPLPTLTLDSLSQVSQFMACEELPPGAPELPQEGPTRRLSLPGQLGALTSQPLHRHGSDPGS
Text: The rapidly activated potassium channel encoded by human ether-a-go-go-related gene (hERG) is an important ion channel involved in the formation of cardiac action potential phase 3 repolarization. Drug-induced blockade of hERG channels can lead to delayed cardiac repolarization, manifested as QT interval prolongation on the electrocardiogram, known as long QT syndrome. Drug-induced delayed ventricular repolarization may, under certain circumstances, trigger fatal arrhythmias-torsade de pointes-type ventricular tachycardia. In this study, the whole-cell patch-clamp technique (the standard method for hERG safety assessment) was employed to evaluate the inhibitory effects of the small-molecule compounds on the hERG potassium channel and to assess the risk of ventricular repolarization toxicity.

in vivo = test: in vivo
Description: C57BL/6 mice, 8 weeks old, female/male, 27, supplier: SPF (Beijing) Biotechnology Co., Ltd.
The body weight of the animals was measured and recorded daily.
All groups were subjected to clinical observations before administration and 1 to 2 h after administration, and additional observations were performed if necessary. Deaths and mortality were checked twice daily. The observations should include, but are not limited to, the following: fur condition, activity, mental status, vomiting, diarrhea, and abnormal secretions around the eyes. All animals should be observed on the day of necropsy, and any abnormal findings should be recorded.
The rectal temperature of all animals was measured and recorded at 0 h before administration and at 2 h, 4 h, 8 h and 24 h after administration.
The experiment was terminated on day 7 after administration. A gross necropsy was performed to examine abdominal and thoracic organs for lesions, and the spleen and liver were collected for weighing.

H22-luc = H22-luc orthotopic model, 3 mpk, IG
Description: The cells were placed in an incubator at 37 °C with 5% CO2 and passaged every 1 to 2 days depending on the cell density.
The cell concentration (H22-luc, 2.0E8/mL) was adjusted, and the cells were mixed well with Matrigel at a ratio of 1:1. The mixture was placed on ice for subsequent injection experiments, and was mixed thoroughly by shaking with Vortex before use.
• (1) The mice were weighed before surgery and anesthetized by intraperitoneal injection of avertin at 0.15 mL/10 g body weight. […] The needle was inserted into the liver at a 30-degree angle relative to the liver surface. After the needle was inserted, the needle was made parallel to the tabletop and advanced in parallel for about 3 mm. 10 µL of H22-luc cell suspension was slowly injected, and a rapid whitening (white plaque) or turbid translucent vacuolation over most of the liver lobe in the injection area was observed. • (5) After injection, a cotton swab was used to apply slight pressure at the needle insertion site while the needle was slowly withdrawn. The cotton swab was removed until no bleeding was observed. • (6) The liver lobe was gently pushed back into the abdominal cavity, and the muscle layer and skin were sutured.
The experimental data were analyzed using Graphpad Prism 8. The experimental data were expressed as mean ± SD.

in vitro = conditions: human, microsomes, pH 7.4
Description: The metabolic stability of the compounds in in vitro liver microsomes was evaluated. The procedures and steps were as follows: At 37 °C, 1 µM of the compounds was incubated in 1 mg/mL liver microsomes. The reaction system was a 0.1 M potassium phosphate buffer (pH 7.4) containing 3 mmol/L MgCl2 and 1 mmol/L NADPH. At the beginning of the reaction, the small molecules and the liver microsomes were pre-incubated at 37 °C for 10 min, and subsequently a cofactor NADPH was added to initiate the metabolic reaction. The reaction was quenched at 0 min, 5 min, 10 min, 20 min, 30 min, and 60 min using three volumes of ice-cold methanol containing an internal standard (200 nM labetalol). After incubation at room temperature for 10 min, the samples were centrifuged at 4000 rpm at 4 °C for 20 min, and the supernatants were collected, diluted with chromatography-grade purified water in a 1:1 ratio, and then subjected to quantitative analysis. […] After a 6-minute chromatographic separation on a C18 column (50 × 2.1 mm; 2.6 µm) under a gradient mobile phase of 0.1% formic acid in water, the peaks corresponding to specified ionic signals were detected. […] The detailed operation process was as follows: • 1) The compound working solution was added to all 96-well reaction plates (T0, T5, T10, T20, T30, and T60) at 10 µL/well, except the blank wells. • 2) The microsomal solution was added to all the reaction wells (T0, T5, T10, T20, T30, T60, and blank wells) at 80 µL/well. • 3) The plates were pre-incubated at 37 °C for 10 min. • 4) After pre-incubation, NADPH was added to each reaction plate at 10 µL/well to initiate the reaction. • 5) At the set end time point, a 4 °C methanol solution (containing an internal standard: 200 nM labetalol) was added to each reaction plate at 300 µL/well to quench the reaction. • 6) Each plate was sealed and shaken for 10 min. • 7) The mixture was shaken well and centrifuged at 4000 rpm at 4 °C for 20 min. • 8) 300 µL of the supernatant was collected, and HPLC-grade water was added at 300 µL/well. The mixture was well mixed and then subjected to LC-MS analysis.
The metabolic half-life (T1/2) and the metabolic clearance rate (CLint(mic)) (µL/min/mg) were calculated using a first-order kinetic equation.

hepatitis B virus (HBV) = test: Anti-hepatitis B virus activity in HBV-infected primary human hepatocytes; format: cell-based, HBV type B; conditions: HBV-infected PHHs, agonist-treated PBMC supernatant (donor 1) or reference compound
Description: The culture supernatant from one donor (donor 1) was selected to stimulate HBV-infected primary hepatocytes (PHHs), and interferon α and nucleoside analog entecavir (ETV) were selected as positive controls. The experimental procedures were as follows (FIG. 14a), and the detailed procedures were as follows: On day -1, cryopreserved PHHs were thawed and adjusted to a density of 6 × 10^5 cells/mL, and the PHHs were seeded into a 48-well plate at 0.22 mL/well.
On day 0, the PHHs were infected with HBV type B at 600 GE/cells.
On day 1, the culture medium was replaced with a fresh one, and reference compounds ETV and Peg-IFN-α2a (Pegasys-Roche) were added to the cells to treat the cells. The reference compounds ETV and Peg-IFN-α2a for the PHHs were each prepared at one concentration, with three replicate wells.
The PBMC supernatants were each prepared at 4 test concentrations, diluted at a ratio of 1:4, and then added to the cells. Three replicate wells were made for each test condition. The culture medium was replaced with a fresh culture medium containing the PBMC supernatants and the reference compounds on days 5, 7, 9, and 11. On day 13, the cell supernatants were collected and the cell viability was detected using CCK-8.
The content of HBV DNA in the supernatants was determined by qPCR according to the kit instructions. HBsAg and HBeAg levels in the supernatants were determined by ELISA.

[5] = test system: Peripheral blood mononuclear cells (hPBMCs); test: Cytokine secretion after stimulation of PBMCs; conditions: hPBMCs from 3 donors, 24 h of stimulation
[6] = test system: advanced unresectable HCC; conditions: cited from earlier work
[7] = test system: advanced hepatocellular carcinoma (aHCC); conditions: first-line aHCC; nivolumab 240 mg intravenous drip once every 2 weeks; sorafenib 400 mg oral twice daily; cited from earlier work
[8] = C57BL/6 mice, single intragastric administration
[9] = ICR, mouse, liver, oral, 10 mg/kg
[10] = ICR, mouse, liver/plasma, oral, 10 mg/kg
[11] = ICR, mouse, plasma, oral, 10 mg/kg

In the case of `COCCNc1nc(N)nc2ccc(Cc3ccc(CN(C)C)cc3)nc12` [Compound I], the “Mean drug concentration (liver)” value ([1]; 0.25h) is reported as 3416 ng/g, the “Mean drug concentration (plasma)” value ([1]; 0.25h) is reported as 45.4 ng/mL and the “Mean drug concentration (liver)” value ([1]; 1 h) is reported as 2340 ng/g. The “Mean drug concentration (plasma)” value ([1]; 1 h) was 25.9 ng/mL, the “Mean drug concentration (liver)” value ([1]; 4h) was 263 ng/g and the “Mean drug concentration (plasma)” value ([1]; 4h) was 10.7 ng/mL. The “Mean drug concentration (liver)” value ([1]; 24h) was 35.6 ng/g, the “Mean drug concentration (plasma)” value ([1]; 24h) was 1.49 ng/mL and the AUC(0-t) at 24 h ([1]; mouse, po, 10 mg/kg, AUC0-t (liver)) was 9480 ng·h/mL. For the same molecule, the AUC(0-t) at 24 h ([1]; mouse, po, 10 mg/kg, AUC0-t (plasma)) was 206 ng·h/mL, the “expression level of IP-10” value ([2]; 3 mpk i.g. single dose) was “increased first, then decreased, and then increased from 1 h to 4 h” and the “expression levels of IL-6, TNF-α, and IFN-α” value ([2]; 3 mpk i.g. single dose) was “decreased from 1 h to 4 h”. For the same molecule, the “expression level of IP-10” value ([2]; 10 mpk i.g. single dose) was “peaked at 2 h and decreased at 4 h”, the “expression levels of IL-6, TNF-α, and IFN-α” value ([2]; 10 mpk i.g. single dose) was “increased from 1 h to 4 h” and the “expression levels of IL-6, TNF-α, IFN-α, and IP-10” value ([2]; 20 mpk i.g. single dose) was “peaked at 2 h, and decreased at 4 h”. For the same molecule, the “mRNA expression level of interferon-related genes” value [3] was “significantly induced an increase”, the ALB level ([4]; 10 mpk group at 2 h) was “significantly lower than that of the control group” and the AST levels ([4]; all administration groups, no statistically significant differences) was “exceeded the normal reference range”. The ALP levels ([4]; all dose groups) was “within the normal reference value range”, the GGT levels ([4]; all dose groups) was “within the normal reference value range” and the “ALT elevation by clinical adverse reaction grading” value ([4]; single administration, Grade 1 AE = ALT exceeding three times the normal value) was “did not result in ALT elevation to grade 1 AE”. The ALT ([4]; whole blood, 3/10/20 mpk i.g. single dose, 1 h, 2 h, 4 h) was “increased in all groups”, the “maximum body weight loss” value (Hep3B-luc) was 8.0% and the IC50 (hERG potassium channel) was 17.2 µM. For the same molecule, the Gross necropsy (in vivo; 10 mg/kg, group 1, male animal No. 46) was “enlarged spleen”, the Cage-side observation (in vivo; 10 mg/kg, group 1, male animal No. 46, day 2) was “mild hunched posture” and the Gross necropsy (in vivo; 40 mg/kg, group 4, female animal No. 2) was “enlarged spleen”. For the same molecule, the rectal temperature (in vivo; 2 h after treatment, significant difference vs vehicle group, returned to normal 4 h, 8 h and 24 h) was “decreased”, the “Adverse reactions at maximum tolerated dose/probability” value (in vivo; [8]) was “No” and the “Weight loss at maximum tolerated dose: whether recovered” value (in vivo; [8]) was “Yes”. For the same molecule, the “Weight loss rate at maximum tolerated dose” value (in vivo; [8]) was 12.5%, the “With or without mouse death” value (in vivo; [8]) was “No” and the spleen weight (in vivo; female animals, 30 mg/kg, compared with vehicle group) was “significantly increased”. The body weight (in vivo; male and female animals, 10-40 mg/kg single administration, began to recover from day 3 to day 7) was “decreased after the single administration”, the MTD at 168 h (in vivo; mouse, in vivo, po) was 40 mg/kg and the mouse death (H22-luc; QW × 3) was “One mouse in the compound I group died from ascites on day 20”. For the same molecule, the TGI (H22-luc; QW × 3, BLI 21 days post-dose, P < 0.0001) was 87.0%, the half-life at 1 µM (in vitro) was 1.7 h and the microsomal CLint at 1 µM (in vitro) was 13.7 µL/min/mg.
With `C=C1[C@H](CO)[C@@H](O)C[C@@H]1n1cnc2c(=O)[nH]c(N)nc21` [ETV, entecavir, reference compound] the “levels of surface antigens HBeAg and HBsAg” value (hepatitis B virus (HBV); supernatant ELISA day 13) was “did not reduce” and the “level of HBV DNA” value (hepatitis B virus (HBV); supernatant qPCR day 13) was “significantly inhibited”.
For `CCCC[C@](C)(CO)Nc1nc(N)nc2cc(F)cnc12` [GS-9688, reference compound], the “Mean drug concentration (liver)” value ([1]; 24h) was “BLOQ”, the “Mean drug concentration (plasma)” value ([1]; 24h) was “BLOQ” and the concentration at 0.25 h [1, 9] was 907 ng/g. The concentration at 1 h [1, 9] was 224 ng/g, the concentration at 4 h [1, 9] was 207 ng/g and the AUC(0-t) ([1]; ICR, mouse, liver, po, 10 mg/kg) was 1180 ng·h/mL. The Kp [1, 10] was 3.5, the Kp at 0.25 h [1, 10] was 2.49 and the Kp at 1 h [1, 10] was 3.16. The Kp at 4 h [1, 10] was 15, the Kp ([1]; ICR, mouse, liver/plasma, po, 10 mg/kg) was 3.5 and the concentration at 0.25 h [1, 11] was 364 ng/mL. The concentration at 1 h [1, 11] was 70.9 ng/mL, the concentration at 4 h [1, 11] was 13.8 ng/mL and the AUC(0-t) ([1]; ICR, mouse, plasma, po, 10 mg/kg) was 336 ng·h/mL. The IFN-α stimulating activity [5] was “essentially failed to activate IFN-α”.
For `CNC(=O)c1cc(Oc2ccc(NC(=O)Nc3ccc(Cl)c(C(F)(F)F)c3)cc2)ccn1` [sorafenib], the median survival ([6]; patients with advanced unresectable HCC (N = 602), placebo 7.9 months) is listed as 10.7 months, the progression-free survival ([6]; placebo 84 days) is listed as 167 days and the ORR [7] is listed as 7%. For the same molecule, the mOS [7] was 14.7 months.
